Among the data in BindingDB's records for patent US10167299 (Shanghai Institute of Material Medica, Chinese Academy of …, 2019) are IC50 values, retold here.

This assay has as its target C-C chemokine receptor type 5 (Homo sapiens, UniProt P51681). Put plainly: Calcium Flux Inhibition Experiment. As for the experimental part: 1. […] The medium in each well into which cells were innoculated was removed and 40 μl/well of freshly prepared dye was added. […] The dye was removed. […] FlexStation II was used for detection.
(Calcium assays in cells follow changes in intracellular calcium, usually with a dye or a luminescent sensor.)

Sequence of C-C chemokine receptor type 5 (P51681 whole entry): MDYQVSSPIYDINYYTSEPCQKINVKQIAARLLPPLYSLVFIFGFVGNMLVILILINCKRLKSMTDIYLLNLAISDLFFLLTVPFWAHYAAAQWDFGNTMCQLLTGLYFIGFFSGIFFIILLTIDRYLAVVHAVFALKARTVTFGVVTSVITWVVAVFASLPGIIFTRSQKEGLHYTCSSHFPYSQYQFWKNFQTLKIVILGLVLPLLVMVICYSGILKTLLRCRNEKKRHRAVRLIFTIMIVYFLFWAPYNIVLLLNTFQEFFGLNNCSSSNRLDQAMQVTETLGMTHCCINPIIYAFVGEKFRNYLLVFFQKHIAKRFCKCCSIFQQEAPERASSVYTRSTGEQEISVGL

Consider `CC(=O)N[C@@H](CCN1C2CCC1CC(n1c(C)nnc1C(C)C)C2)c1csc2ccccc12` (stereo partly specified) [US10167299, Example 28], for which the IC50 amounted to 68 nM.

In general, IC50 refers to the concentration that inhibits the measured activity by half.
